In the supplement of paper PMC10307832:

Experiments:
Experiment in all cases: relative viability (nuclei count vs DMSO), 5 days (fraction); higher = more cells survive
Bexarotene + Palbociclib = compound: C=C(c1ccc(C(=O)O)cc1)c1cc2c(cc1C)C(C)(C)CCC2(C)C [Bexarotene] + CC(=O)c1c(C)c2cnc(Nc3ccc(N4CCNCC4)cn3)nc2n(C2CCCC2)c1=O [Palbociclib] (partner 0.5 µM)
In short: (§1)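 Lung cancer cell lines were pin-tool dosed in 1536-well plates on the day after seeding, with either a lone drug or a fixed anchor-drug dose plus five library-drug doses (not always all listed) in √10 steps. Nuclei were counted on 4× images after 5 days. Relative viability is the ratio of treated-well to vehicle-well nuclei counts, with each value a median of duplicate plates.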

Bexarotene + Pictilisib = compound: C=C(c1ccc(C(=O)O)cc1)c1cc2c(cc1C)C(C)(C)CCC2(C)C [Bexarotene] + CS(=O)(=O)N1CCN(Cc2cc3nc(-c4cccc5[nH]ncc45)nc(N4CCOCC4)c3s2)CC1 [Pictilisib] (partner 1 µM)
In short: as §1

Bexarotene + Bortezomib = compound: C=C(c1ccc(C(=O)O)cc1)c1cc2c(cc1C)C(C)(C)CCC2(C)C [Bexarotene] + CC(C)C[C@H](NC(=O)[C@H](Cc1ccccc1)NC(=O)c1cnccn1)B(O)O [Bortezomib] (partner 0.002 µM)
In short: as §1

Bexarotene + Foretinib = compound: C=C(c1ccc(C(=O)O)cc1)c1cc2c(cc1C)C(C)(C)CCC2(C)C [Bexarotene] + COc1cc2c(Oc3ccc(NC(=O)C4(C(=O)Nc5ccc(F)cc5)CC4)cc3F)ccnc2cc1OCCCN1CCOCC1 [Foretinib] (partner 0.25 µM)
In short: as §1

Row | Cell Line | relative viability (Bexarotene + Palbociclib; first compound 0.08 µM) | relative viability (Bexarotene + Palbociclib; first compound 0.253 µM) | relative viability (Bexarotene + Palbociclib; first compound 0.8 µM) | relative viability (Bexarotene + Palbociclib; first compound 2.53 µM) | relative viability (Bexarotene + Palbociclib; first compound 8 µM) | relative viability (Bexarotene + Pictilisib; first compound 0.08 µM) | relative viability (Bexarotene + Pictilisib; first compound 0.253 µM) | relative viability (Bexarotene + Pictilisib; first compound 0.8 µM) | relative viability (Bexarotene + Pictilisib; first compound 2.53 µM) | relative viability (Bexarotene + Pictilisib; first compound 8 µM) | relative viability (Bexarotene + Bortezomib; first compound 0.08 µM) | relative viability (Bexarotene + Bortezomib; first compound 0.253 µM) | relative viability (Bexarotene + Bortezomib; first compound 0.8 µM) | relative viability (Bexarotene + Bortezomib; first compound 2.53 µM) | relative viability (Bexarotene + Bortezomib; first compound 8 µM) | relative viability (Bexarotene + Foretinib; first compound 0.08 µM) | relative viability (Bexarotene + Foretinib; first compound 0.253 µM) | relative viability (Bexarotene + Foretinib; first compound 0.8 µM) | relative viability (Bexarotene + Foretinib; first compound 2.53 µM) | relative viability (Bexarotene + Foretinib; first compound 8 µM)
1 | NCI-H2085 | 0.411 | 0.434 | 0.415 | 0.374 | 0.383 | 0.449 | 0.461 | 0.431 | 0.386 | 0.476 | 1.04 | 0.918 | 0.929 | 0.946 | 0.939 | 0.963 | 0.692 | 0.804 | 0.862 | 0.94
2 | NCI-H2087 | 0.254 | 0.238 | 0.198 | 0.274 | 0.226 | 1.03 | 0.941 | 0.91 | 0.786 | 0.818 | 0.877 | 0.972 | 0.979 | 0.753 | 0.725 | 1.3 | 1.1 | 1.12 | 0.982 | 1.03
3 | NCI-H2126 | 0.354 | 0.346 | 0.325 | 0.331 | 0.365 | 0.558 | 0.512 | 0.462 | 0.514 | 0.519 | 1.13 | 1.17 | 1.08 | 1.12 | 1.11 | 0.971 | 1.2 | 1.1 | 1.22 | 1.07
4 | NCI-H2228 | 0.968 | 0.603 | 0.707 | 0.702 | 0.699 | 0.476 | 0.572 | 0.358 | 0.454 | 0.336 | 1.08 | 1.3 | 1.05 | 1.11 | 0.841 | 0.971 | 1.08 | 0.698 | 0.897 | 0.837
5 | NCI-H2347 | 0.465 | 0.413 | 0.343 | 0.368 | 0.426 | 0.597 | 0.62 | 0.461 | 0.743 | 0.605 | 1.2 | 0.904 | 0.818 | 0.664 | 0.835 | 0.878 | 0.783 | 0.703 | 0.882 | 1.09
6 | NCI-H2405 | 0.541 | 0.557 | 0.44 | 0.565 | 0.508 | 0.58 | 0.455 | 0.326 | 0.538 | 0.523 | 1.07 | 0.945 | 0.836 | 0.896 | 0.92 | 1.17 | 1.05 | 0.758 | 1.05 | 1.02
7 | NCI-H3122 | 0.225 | 0.216 | 0.187 | 0.254 | 0.23 | 0.82 | 0.821 | 0.647 | 0.855 | 0.802 | 1.09 | 1.05 | 1.09 | 1.15 | 1.13 | 0.99 | 0.988 | 0.957 | 0.9 | 0.975
8 | PC-3 [JPC-3] | 0.556 | 0.514 | 0.492 | 0.471 | 0.493 | 0.868 | 0.749 | 0.519 | 0.656 | 0.666 | 0.9 | 0.843 | 0.68 | 0.858 | 0.771 | 1.13 | 0.949 | 0.941 | 0.99 | 0.891
9 | PC-14 | 0.519 | 0.531 | 0.543 | 0.489 | 0.344 | 0.663 | 0.724 | 0.7 | 0.704 | 0.565 | 0.926 | 0.885 | 0.856 | 0.825 | 0.719 | 1.12 | 1.08 | 0.973 | 1.01 | 0.934
10 | RERF-LC-KJ | 1.07 | 1.02 | 0.817 | 0.999 | 0.922 | 0.492 | 0.592 | 0.503 | 0.387 | 0.57 | 1.17 | 1.12 | 1.03 | 1.06 | 1.17 | 0.839 | 0.823 | 0.715 | 0.795 | 0.777
11 | SK-LU-1 | 0.419 | 0.394 | 0.326 | 0.393 | 0.37 | 0.717 | 0.663 | – | 0.567 | 0.63 | 1.23 | 1.6 | 0.88 | 1.32 | 1.05 | 0.785 | 0.898 | – | 0.791 | 0.762
12 | SW 1573 | 0.362 | 0.327 | 0.378 | 0.354 | 0.288 | 0.554 | 0.459 | 0.447 | 0.42 | 0.436 | 0.896 | 0.923 | 0.955 | 0.803 | 0.763 | 1.02 | 0.831 | 0.661 | 0.669 | 0.666
13 | UMC-11 | 0.308 | 0.355 | 0.316 | 0.267 | 0.339 | 0.973 | 0.814 | 0.756 | 0.805 | 0.802 | 0.877 | 0.796 | 0.8 | 1.03 | 0.637 | 1.1 | 1.01 | 0.946 | 1.07 | 0.956
